Results on one compound are retold here after publication PMC8020795 (Proceedings of the National Academy of Sciences of the …, 2021).

One assay concerns HCA-1 cells. The assay can be described thus: Wound healing assay. It counts as cell-based, murine. The settings on record: CXCL12 100 ng/mL, BPRCX807 10 μM, 24, 48, 72 h. On the procedure:
[3-(2-Aminomethyl-oxazol-4-yl)-propyl]-[3-(tert-butoxycarbonyl-cyclohexyl-amino)- propyl]-carbamic acid tert-butyl ester (Linker 1). A mixture of L1-6 (10.35 g, 16.5 mmol) and 10% Pd/C (4.66 g) in iso-propanol (310 mL) was stirred under H2(g) at 50 °C for 15 h.
The resulting mixture was filtered, and the filtrate was concentrated to afford Linker 1 (7.23 g, […]
Wound healing and invasion assays
Cell migration ability was measured by wound healing assay. HCA-1 cells (5 × 10^5 cells per well) were seeded onto 12-well plates and incubated overnight. When the cell confluence exceeded 90%, scratch wounds were made by scraping a straight line in the middle of the cell layer using the tip of a 1000 µL pipette. After washing the cells with PBS, the cells were incubated in serum-free medium under different treatment conditions (control, 100 ng/mL CXCL12, and 10 µM BPRCX807 with 100 ng/mL CXCL12). Then, 3-4 fields (40×) of each group were randomly chosen and observed by a microscope (IX83, Olympus, Japan) at time points of 0 h, 24h, 48 h and 72 h. For the invasion assay, HCA-1 cells were suspended in RPMI 1640 containing 0.5% FBS and then preincubated with the indicated concentrations of compounds for 10 min at 37 °C. […] After 17.5 h of incubation at 37 °C, the cells in both chambers of the inserts were measured with a CellTiter-Glo Luminescent Cell Viability Assay (Promega, Wisconsin). […]

Another assay has as its target CXCR4 (Homo sapiens, UniProt P61073). In words: Human CXCR4-binding assay ([125I]CXCL12 displacement, hCXCR4-transfected HEK293T membranes). More on the design: expressed in transfected cells; host or cells: HEK293T. On the procedure: concentrations of BPRCX807 in incubation buffer (50 mM HEPES-NaOH, pH 7.4, 100 mM NaCl, 5 mM MgCl2, 1 mM CaCl2, 0.5% BSA). Nonspecific binding was defined in the […]
The reaction mixtures were incubated for 1.5 h at 30 °C and then transferred to a 96 -well GF/B filter plate (Merck Millipore, Billerica, MA).
The reaction mixtures were terminated by manifold filtration and washed with ice-cold wash buffer (50 mM HEPES-NaOH, pH 7.4, 100 mM NaCl) four times. The radioactivity bound to the filter was measured with a TopCount instrument (PerkinElmer, Waltham, MA). The IC50 values were determined as the concentrations of the compounds required to inhibit 50% of the specific binding of [125I]CXCL12 and were calculated by nonlinear regression (GraphPad software, San Diego, CA).
Pharmacokinetics and toxicological studies
Male C57BL/6 mice, each weighing 23.4–25.4 g, were quarantined for 1 week before drug treatment. Compounds dissolved in 100% saline were individually given to mice (n = 3) subcutaneously (6 mg/kg; nonfasted mice). […] The plasma samples were analyzed by liquid chromatography– tandem mass spectrometry (LC–MS/MS), and the data were calculated by a standard noncompartmental method using the Kinetica software program (InnaPhase). […]

The subject of a further assay is DEN/CCl4-induced HCC. In words: DEN/CCl4-induced liver fibrosis associated HCC model. It counts as in vivo, C3H mice. Here is the method: In vivo hepatocellular carcinoma treatment studies […]
mouse PD-1 (200 µg/mouse; BioXcell, BE0146). The therapeutic efficacy and the changes in immune cells were analyzed after two weeks of treatment. The tumor volume was calculated with the following formula: volume = width × length × height/2. The lung metastatic nodules

CXCR4, sequence (P61073 whole entry): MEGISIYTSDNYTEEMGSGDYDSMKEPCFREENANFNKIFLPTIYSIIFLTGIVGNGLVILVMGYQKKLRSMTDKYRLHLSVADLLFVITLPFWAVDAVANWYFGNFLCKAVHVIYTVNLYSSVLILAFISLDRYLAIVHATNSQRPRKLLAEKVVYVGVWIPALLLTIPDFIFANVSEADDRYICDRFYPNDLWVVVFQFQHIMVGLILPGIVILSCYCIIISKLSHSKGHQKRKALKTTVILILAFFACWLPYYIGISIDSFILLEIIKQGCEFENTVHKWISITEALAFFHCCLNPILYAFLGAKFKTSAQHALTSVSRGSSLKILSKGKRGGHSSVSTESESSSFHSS

Usually IC50 stands for the concentration needed to halve the response being measured. Low values mean inhibition by little substance, high ones a need for much substance. On to `Cc1cc(NC2CCN(C(=O)CCNCC(=O)O)CC2)nc(NCc2nc(CCCNCCCNC3CCCCC3)co2)n1` [BPRCX807], for which the “CXCL12-induced wound closure rate” value with HCA-1 cells is “significantly suppressed”. The IC50 at CXCR4 worked out at 40.4 ± 8 nM. Also, the “Tumors in fibrotic liver” value in the assay on DEN/CCl4-induced HCC (combination with anti–PD-1, BPRCX807 15 mg/kg/d SC minipump weeks 25 to 28) is on record as “remarkably suppressed”. Besides, the Tumor size result in the assay with DEN/CCl4-induced HCC (combination with sorafenib) is listed as “significantly reduce tumor size more efficiently than sorafenib alone”.
